Reference: US5624923A, “Tricyclic diazepine vasopressin antagonists and oxytocin antagonists” (priority 1995, dated 1997)
Where two headings read alike, the source gives them in different places. Blank lines part the entries; values can stand above or below the compound they belong to.

What was measured:
[1] = biological target: T1, Rat Hepatic V1 Receptors (Rattus norvegicus, UniProt P30560); assay: Binding Assay to Rat Hepatic V1 Receptors
T1 construct: Rat liver plasma membranes expressing the vasopressin V1 receptor subtypes; from tissue; host or cells: rat liver plasma membranes
Procedure: Binding Assay to Rat Hepatic V1 Receptors
Rat liver plasma membranes expressing the vasopressin V1 receptor subtypes are isolated by sucrose density gradient according to the method described by Lesko et al., (1973). These membranes are quickly suspended in 50.0 mM Tris.HCl buffer, pH 7.4, containing 0.2% bovine serum albumin (BSA) and 0.1 mM phenylmethylsulfonylfluoride (PMSF) and kept frozen at -70° C. until used in subsequent binding experiments. For binding experiments, the following is added to the wells of a ninety-six well format microtiter plate: 100 μl of 100.0 mM Tris.HCl buffer containing 10.0 mM MgCl2, 0.2% heat inactivated BSA and a mixture of protease inhibitors: leupeptin, 1.0 mg %; aprotinin, 1.0 mg %; 1,10-phenanthroiine,2.0 mg %; trypsin inhibitor, 10.0 mg % and 0.1 mM PMSF, 20.0 μl of [phenylalanyl-3,4,5, -^3 H] vasopressin (S.A. 45.1 Ci/mmole) at 0.8 nM, and the reaction initiated by the addition of 80 μl of tissue membranes containing 20 μg of tissue protein. The plates are kept undisturbed on the bench top at room temperature for 120 min. to reach equilibrium. Non-specific samples are assayed in the presence of 0.1 μM of the unlabeled antagonist phenylalanylvasopressin, added in 20.0 μl volume.
(§1) For test compounds, these are solubilized in 50% dimethylsulfoxide (DMSO) and added in 20.0 μl volume to a final incubation volume of 200 μl . Upon completion of binding, the content of each well is filtered off, using a Brandel® cell Harvester (Gaithersburg, Md.). The radioactivity trapped on the filter disk by the ligand-receptor complex is assessed by liquid scintillation counting in a Packard LS Counter, with an efficiency of 65% for tritium. The data are analyzed for IC50 values by the LUNDON-2 program for competition (LUNDON SOFTWARE, Ohio).

[2] = biological target: T2, Rat Kidney Medullary V2 Receptors (Rattus norvegicus, UniProt Q00788); assay: Binding Assay to Rat Kidney Medullary V2 Receptors; details: for IC50: rat kidney medulla membranes, read-out: V2 IC50
T2 construct: Medullary tissues from rat kidneys are dissected out; from tissue; host or cells: rat kidney medulla membranes
Procedure: Binding Assay to Rat Kidney Medullary V2 Receptors
Medullary tissues from rat kidneys are dissected out, cut into small pieces and soaked in a […] sodium chloride solution containing 1.0 mM EDTA with many changes of the liquid phase, until the solution is clear of blood. The tissue is homogenized in a 0.25M sucrose solution containing 1.0 mM EDTA and 0.1 mM PMSF using a Potter-Elvehjem homogenizer with a teflon pestle. The homogenate is filtered through several layers (4 layers) of cheese cloth. The filtrate is rehomogenized using a dounce homogenizer, with a tight fitting pestle. The final homogenate is centrifuged at 1500× g for 15 min. The nuclear pellet is discarded and the supernatant fluid recentrifuged at 40,000× g for 30 min. The resulting pellet formed contains a dark inner part with the exterior., slightly pink. The pink outer part is suspended in a small amount of 50.0 mM Tris. HCl buffer, pH 7.4. The protein content is determined by the Lowry's method (Lowry et al., J. Biol. Chem., 1953). The membrane suspension is stored at -70° C. in 50.0 mM Tris HCl, containing 0.2% inactivated BSA and 0.1 mM PMSF in aliquots of 1.0 ml containing 10.0 mg protein per ml of suspension until use in subsequent binding experiments.
as §1, with “The plates are left undisturbed on the bench top for 120 min to reach equilibrium. Non-specific binding is assessed in the presence of 1.0 μM of unlabeled ligand, added in 20 μl volume. For” for “For”, “μl.” for “μl .”

[3] = system: Vasopressin V2; assay: Vasopressin V2 Antagonist Activity in Conscious Hydrated Rats; type: in vivo, rat; details: 10 mg/kg orally, AVP 0.4 μg/kg i.p.
Procedure: Vasopressin V2 Antagonist Activity in Conscious Hydrated Rats
Conscious hydrated rats are treated with compounds under study from 0.1 to 100 mg/kg orally or vehicle. Two to four rats are used for each compound. One hour later, arginine vasopressin (AVP, antidiuretic hormore, ADH) dissolved in peanut oil is administered at 0.4 μg/kg intraperitoneally. Two rats in each test would not receive arginine vasopressin but only the vehicle (peanut oil) to serve as water-loading control. Twenty minutes later each rat is given 30 mL/kg of deionized water orally by gavage and is placed individually in a metabolic cage equipped with a funnel and a graduated glass cylinder to collect urine for four hours. Urine volume is measured and osmolality analyzed by use of a Fiske One-Ten osmometer (Fiske Assoc., Norwood, Mass., USA). Urinary sodium, potassium, and chloride are analyzed by use of ion-specific electrodes in a Beckman E3 (Electrolyte 3) Analyzer.

[4] = system: Vasopressin V1; assay: Vasopressin V1 Antagonist Activity in Conscious Rats (vasopressin vasopressor response); type: in vivo, rat; design: Average Change: unit not given here; details: for % Inhibition / Average Change: SHR
Method in brief: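 Conscious rats are restrained supine, and under local 2% procaine a PE 10/20 cannula is passed through the ventral caudal tail artery into the lower abdominal aorta. The caudal vein is cannulated for intravenous dosing. Blood pressure is recorded with a Statham P23Db transducer, and vasopressin injections are repeated after compound dosing. Percent antagonism is calculated against the pre-drug vasopressor response taken as 100%.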

[5] = rat liver membranes; read-out: V1 IC50
[6] = 10 mg/kg i.v., VAS 0.01 i.u./kg, 30 min
[7] = 10 mg/kg i.v., VAS 0.01 i.u./kg, 60 min
[8] = 10 mg/kg i.v., VAS 0.01 i.u./kg, 90 min
[9] = 10 mg/kg i.v., VAS 0.01 i.u./kg, 120 min
[10] = 10 mg/kg i.v., VAS 0.01 i.u./kg, 180 min
[11] = 10 mg/kg i.v., VAS 0.01 i.u./kg, 240 min
[12] = 10 mg/kg i.v., VAS 0.01 i.u./kg, 300 min
[13] = 10 mg/kg i.v., VAS 0.02 i.u./kg, 30 min
[14] = 10 mg/kg i.v., VAS 0.02 i.u./kg, 60 min
[15] = 10 mg/kg i.v., VAS 0.02 i.u./kg, 90 min
[16] = 10 mg/kg i.v., VAS 0.02 i.u./kg, 120 min
[17] = 10 mg/kg i.v., VAS 0.02 i.u./kg, 180 min
[18] = 10 mg/kg i.v., VAS 0.02 i.u./kg, 240 min
[19] = 10 mg/kg i.v., VAS 0.02 i.u./kg, 300 min
[20] = 20 mg/kg i.v., VAS 0.01 i.u./kg, 60 min
[21] = 20 mg/kg i.v., VAS 0.01 i.u./kg, 90 min
[22] = 20 mg/kg i.v., VAS 0.01 i.u./kg, 120 min
[23] = 20 mg/kg i.v., VAS 0.01 i.u./kg, 180 min
[24] = 20 mg/kg i.v., VAS 0.01 i.u./kg, 240 min
[25] = 20 mg/kg i.v., VAS 0.01 i.u./kg, 300 min
[26] = 20 mg/kg i.v., VAS 0.02 i.u./kg, 60 min
[27] = 20 mg/kg i.v., VAS 0.02 i.u./kg, 90 min
[28] = 20 mg/kg i.v., VAS 0.02 i.u./kg, 120 min
[29] = 20 mg/kg i.v., VAS 0.02 i.u./kg, 180 min
[30] = 20 mg/kg i.v., VAS 0.02 i.u./kg, 240 min
[31] = 20 mg/kg i.v., VAS 0.02 i.u./kg, 300 min

T1 sequence (P30560 whole entry): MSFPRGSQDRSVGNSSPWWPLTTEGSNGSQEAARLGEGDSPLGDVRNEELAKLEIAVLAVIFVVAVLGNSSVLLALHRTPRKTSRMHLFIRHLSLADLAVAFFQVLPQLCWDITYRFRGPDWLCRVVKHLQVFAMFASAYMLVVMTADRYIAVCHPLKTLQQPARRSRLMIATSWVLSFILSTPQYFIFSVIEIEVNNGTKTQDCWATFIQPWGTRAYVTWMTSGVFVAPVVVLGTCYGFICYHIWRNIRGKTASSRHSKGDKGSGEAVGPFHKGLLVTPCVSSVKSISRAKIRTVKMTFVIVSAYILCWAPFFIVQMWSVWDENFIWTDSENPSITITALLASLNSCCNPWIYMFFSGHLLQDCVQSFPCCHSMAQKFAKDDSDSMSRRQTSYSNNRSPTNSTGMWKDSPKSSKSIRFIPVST
T2 sequence (Q00788 whole entry): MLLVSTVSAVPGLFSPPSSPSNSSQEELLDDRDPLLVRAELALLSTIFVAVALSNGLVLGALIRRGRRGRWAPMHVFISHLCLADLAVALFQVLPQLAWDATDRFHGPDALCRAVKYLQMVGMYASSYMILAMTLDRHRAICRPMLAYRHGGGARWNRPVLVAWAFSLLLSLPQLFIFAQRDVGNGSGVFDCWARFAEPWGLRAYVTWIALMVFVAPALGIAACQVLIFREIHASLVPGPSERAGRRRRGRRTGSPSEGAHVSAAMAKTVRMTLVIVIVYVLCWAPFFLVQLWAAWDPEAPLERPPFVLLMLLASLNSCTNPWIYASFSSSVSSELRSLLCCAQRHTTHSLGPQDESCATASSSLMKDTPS

SMILES: Cc1ccccc1NC(=O)Nc1ccc(C(=O)N2Cc3cccn3Cc3ccccc32)cc1 [Example 116, 10,11-Dihydro-10-[4-[[[(2-methylphenyl]amino]-carbonl]amino]benzoyl]-5H-pyrrolo[2,1-c]-[1,4]benzodiazepine]
IC50 ([1]; read-out: V1 IC50; rat liver membranes): 280 nM
IC50 [2]: 85 nM
% Inhibition [4, 6]: 22%
Average Change [4, 6]: 22.5
% Inhibition [4, 7]: 38%
Average Change [4, 7]: 18
% Inhibition [4, 8]: 34%
Average Change [4, 8]: 19
% Inhibition [4, 9]: 33%
Average Change [4, 9]: 19.5
% Inhibition [4, 10]: 38%
Average Change [4, 10]: 18
% Inhibition [4, 11]: 45%
Average Change [4, 11]: 16
% Inhibition [4, 12]: 24%
Average Change [4, 12]: 22
% Inhibition [4, 13]: 24%
Average Change [4, 13]: 36.5
% Inhibition [4, 14]: 30%
Average Change [4, 14]: 33.5
% Inhibition [4, 15]: 33%
Average Change [4, 15]: 32
% Inhibition [4, 16]: 17%
Average Change [4, 16]: 40
% Inhibition [4, 17]: 17%
Average Change [4, 17]: 40
% Inhibition [4, 18]: 20%
Average Change [4, 18]: 38.5
% Inhibition [4, 19]: 14%
Average Change [4, 19]: 41.5

SMILES: Cc1ccccc1C(=O)Nc1ccc(C(=O)N2Cc3cccn3Cc3sccc32)cc1 [Example 267, N-[4-(5H-Pyrrolo[1,2-a]thieno[3,2-e][1,4]diazepin-4(10H)-ylcarbonyl)phenyl]-2-methylbenzamide]
IC50 [1, 5]: 220 nM
IC50 [2]: 28 nM
Max. % Inhibition ([4]; 10 mg/kg i.v.): 56%
Time (of max. % inhibition) ([4]; 10 mg/kg i.v.): 60 min

SMILES: Cc1ccccc1C(=O)Nc1ccc(C(=O)N2Cc3ccc(Cl)n3Cc3ccccc32)cc1 [Example 41, N-[4-(3-Chloro-5H-pyrrolo[2,1c][1,4]benzodiazepine10(11H)ylcarbonyl)phenyl]-2-methylbenzamide]
IC50 [1, 5]: 37 nM
IC50 [2]: 17 nM
% Inhibition [4, 6]: 45%
Average Change [4, 6]: 12
% Inhibition [4, 7]: 59%
Average Change [4, 7]: 9
% Inhibition [4, 8]: 36%
Average Change [4, 8]: 14
% Inhibition [4, 9]: 36%
Average Change [4, 9]: 14
% Inhibition [4, 10]: 39%
Average Change [4, 10]: 13.5
% Inhibition [4, 11]: 43%
Average Change [4, 11]: 12.5
% Inhibition [4, 12]: 32%
Average Change [4, 12]: 15
% Inhibition [4, 13]: 53%
Average Change [4, 13]: 23.5
% Inhibition [4, 14]: 64%
Average Change [4, 14]: 18
% Inhibition [4, 15]: 55%
Average Change [4, 15]: 22.5
% Inhibition [4, 16]: 67%
Average Change [4, 16]: 16.5
% Inhibition [4, 17]: 58%
Average Change [4, 17]: 21
% Inhibition [4, 18]: 53%
Average Change [4, 18]: 23.5
% Inhibition [4, 19]: 47%
Average Change [4, 19]: 27

SMILES: Cc1c(CC(=O)Nc2ccc(C(=O)N3Cc4cccn4Cc4ccccc43)cc2)sc2ccccc12 [Example 87]
inhibition at 10 µM ([1]; 2 h; 10 μM, rat): 63%
inhibition at 10 µM ([2]; 10 μM, rat): 80%
% Inhibition [4, 6]: 20%
Average Change [4, 6]: 50
% Inhibition [4, 13]: 14%
Average Change [4, 13]: 57
% Inhibition [4, 20]: 77%
Average Change [4, 20]: 14.5
% Inhibition [4, 21]: 61%
Average Change [4, 21]: 24.5
% Inhibition [4, 22]: 58%
Average Change [4, 22]: 26
% Inhibition [4, 23]: 58%
Average Change [4, 23]: 26.5
% Inhibition [4, 24]: 54%
Average Change [4, 24]: 28.5
% Inhibition [4, 25]: 52%
Average Change [4, 25]: 30
% Inhibition [4, 26]: 51%
Average Change [4, 26]: 32.5
% Inhibition [4, 27]: 50%
Average Change [4, 27]: 33.5
% Inhibition [4, 28]: 47%
Average Change [4, 28]: 35.5
% Inhibition [4, 29]: 44%
Average Change [4, 29]: 37.5
% Inhibition [4, 30]: 38%
Average Change [4, 30]: 41
% Inhibition [4, 31]: 27%
Average Change [4, 31]: 48.5

More lines, main results first:

IC50 [1, 5]: 87 nM
IC50 [2]: 53 nM
SMILES: O=C(CC1CCCCC1)Nc1ccc(C(=O)N2Cc3cccn3Cc3ccccc32)cc1 [Example 356, N-[4-(5H-Pyrrolo[2,1-c][1,4]benzodiazepin-10(11)ylcarbonyl)phenyl]-cyclohexylacetamide]
Osmolality [3]: 1023 mOsm/kg
Urine Volume [3]: 5.8 ml/4 hrs

IC50 [1, 5]: 12 nM
IC50 [2]: 7 nM
SMILES: O=C(Nc1ccc(C(=O)N2Cc3cccn3Cc3ccccc32)cc1)C1CC=CCC1 (stereo not drawn) [Example 354, N-[4-(5H-Pyrrolo[2,1-c][1,4]benzodiazepin-10(11)-ylcarbonyl)phenyl]-3-cyclohexenecarboxamide]
Osmolality [3]: 1010 mOsm/kg
Urine Volume [3]: 8.8 ml/4 hrs
